Source: ChEMBL document CHEMBL6120940, “Discovery of N-Aryl-N'-[4-(aryloxy)cyclohexyl]squaramide-Based Inhibitors of LXR/SREBP-1c Signaling Pathway Ameliorating Steatotic Liver Disease: Navigating the Role of SIRT6 Activation” (J Med Chem, 2024)

Columns and labels:
HepG2 = assay: Cytotoxicity against human HepG2 cells at 10 uM measured after 24 hrs by CCK-8 method relative to control; type: functional
[1] = Downregulation of SREBP-1c mRNA expression in human HepG2 cells at 10 uM pretreated with compound for 30 mins followed by T0901317 addition and measured after 12 hrs by RT-qPCR analysis relative to control; type: functional; settings: time 12.5 hrs
[2] = target: T1, Sterol regulatory element-binding protein 1 (Homo sapiens) (UniProt P36956); assay: Inhibition of SREBP-1c transcriptional activity in human HepG2 cells expressing LXRalpha/RXRalpha assessed as reduction in SRE-luciferase level at 10 uM pretreated with compound for 30 mins followed by T0901317 addition and measured after 12 hrs by Dual-Glo luciferase assay relative to control; type: cell-based; settings: time 12.5 hrs
T1 sequence (whole entry): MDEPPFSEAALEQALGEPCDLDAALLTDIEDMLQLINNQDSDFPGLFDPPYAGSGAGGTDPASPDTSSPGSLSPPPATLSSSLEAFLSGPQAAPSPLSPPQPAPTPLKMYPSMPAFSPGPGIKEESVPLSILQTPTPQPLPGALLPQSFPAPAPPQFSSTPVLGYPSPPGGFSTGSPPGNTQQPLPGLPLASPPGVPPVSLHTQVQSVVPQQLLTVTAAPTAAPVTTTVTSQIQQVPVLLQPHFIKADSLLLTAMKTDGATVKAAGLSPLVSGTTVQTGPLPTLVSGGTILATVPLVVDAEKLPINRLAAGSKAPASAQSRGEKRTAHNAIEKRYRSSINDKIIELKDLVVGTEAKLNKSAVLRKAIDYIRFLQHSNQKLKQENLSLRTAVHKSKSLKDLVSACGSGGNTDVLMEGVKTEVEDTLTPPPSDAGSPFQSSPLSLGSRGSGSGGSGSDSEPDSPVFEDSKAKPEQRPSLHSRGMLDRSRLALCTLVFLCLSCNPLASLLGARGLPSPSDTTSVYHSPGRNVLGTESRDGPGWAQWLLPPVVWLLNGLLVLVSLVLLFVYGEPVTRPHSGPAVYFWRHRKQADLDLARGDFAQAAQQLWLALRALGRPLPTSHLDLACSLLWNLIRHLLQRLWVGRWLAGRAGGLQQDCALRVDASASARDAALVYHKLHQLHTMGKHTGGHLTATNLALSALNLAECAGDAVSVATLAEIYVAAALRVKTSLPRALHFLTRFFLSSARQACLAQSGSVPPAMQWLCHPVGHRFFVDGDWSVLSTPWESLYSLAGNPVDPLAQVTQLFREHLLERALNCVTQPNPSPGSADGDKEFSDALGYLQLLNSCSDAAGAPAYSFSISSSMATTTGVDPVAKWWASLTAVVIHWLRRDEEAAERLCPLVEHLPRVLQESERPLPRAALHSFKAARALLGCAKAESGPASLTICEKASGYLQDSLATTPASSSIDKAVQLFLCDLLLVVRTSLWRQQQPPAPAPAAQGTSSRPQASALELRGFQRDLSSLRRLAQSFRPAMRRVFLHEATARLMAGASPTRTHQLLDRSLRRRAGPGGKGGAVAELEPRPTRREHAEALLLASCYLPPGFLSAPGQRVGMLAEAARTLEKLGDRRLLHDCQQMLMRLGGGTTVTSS

| SMILES | inhibition [2] | Activity (HepG2) | Activity [1] |
| --- | --- | --- | --- |
| CC(C)(C)c1ccc(Nc2c(N[C@H]3CC[C@H](Oc4ccc(S(C)(=O)=O)cc4)CC3)c(=O)c2=O)cc1 | 26.9% | 95% | 68.5% |
| O=c1c(Nc2ccccc2)c(N[C@H]2CC[C@H](Oc3ccc(C(F)(F)F)cc3)CC2)c1=O | 70.8% | 93.2% | 77% |
| O=c1c(Nc2ccc(Cl)cc2)c(N[C@H]2CC[C@H](Oc3ccc(C(F)(F)F)cc3)CC2)c1=O | 39.1% | 88.4% | 103.6% |
| CC(C)(C)c1ccc(Nc2c(N[C@H]3CC[C@H](Oc4ccc(C(F)(F)F)cc4)CC3)c(=O)c2=O)cc1 | 32.6% | 95.9% | 68% |
| COC(=O)c1ccc(Nc2c(N[C@H]3CC[C@H](Oc4ccc(C(F)(F)F)cc4)CC3)c(=O)c2=O)cc1 | 47.5% | 104.7% | 91.6% |
| CS(=O)(=O)c1ccc(O[C@H]2CC[C@H](Nc3c(Nc4ccccc4)c(=O)c3=O)CC2)cc1 | 76.2% | 76.2% | 76.1% |
| O=c1c(Nc2ccc(F)cc2)c(N[C@H]2CC[C@H](Oc3ccc(C(F)(F)F)cc3)CC2)c1=O | 40% | 87.8% | 59.3% |
| COc1ccccc1Nc1c(N[C@H]2CC[C@H](Oc3ccc(C(F)(F)F)cc3)CC2)c(=O)c1=O | 21.5% | 77.8% | 30% |
| COC(=O)c1ccc(Nc2c(N[C@H]3CC[C@H](Oc4ccc(C#N)cc4)CC3)c(=O)c2=O)cc1 | 50.4% | 99.1% | 65.9% |
| N#Cc1ccc(O[C@H]2CC[C@H](Nc3c(Nc4ccc(F)cc4)c(=O)c3=O)CC2)cc1 | 46.2% | 77% | 87.4% |
| CS(=O)(=O)c1ccc(O[C@H]2CC[C@H](Nc3c(Nc4ccc(Cl)cc4)c(=O)c3=O)CC2)cc1 | 107% | 90.7% | 47.9% |
| CS(=O)(=O)c1ccc(O[C@H]2CC[C@H](Nc3c(Nc4ccc(F)cc4)c(=O)c3=O)CC2)cc1 |  | 91.3% | 24% |
| N#Cc1ccc(O[C@H]2CC[C@H](Nc3c(Nc4ccc(Cl)cc4)c(=O)c3=O)CC2)cc1 | 87.1% | 96.2% | 36.9% |
| N#Cc1ccc(O[C@H]2CC[C@H](Nc3c(Nc4ccccc4)c(=O)c3=O)CC2)cc1 | 80.1% | 90.6% | 84.8% |
| CC(C)(C)c1ccc(Nc2c(N[C@H]3CC[C@H](Oc4ccc(C#N)cc4)CC3)c(=O)c2=O)cc1 | 30.1% | 87.4% | 61.5% |
| COC(=O)c1ccc(Nc2c(N[C@H]3CC[C@H](Oc4ccc(S(C)(=O)=O)cc4)CC3)c(=O)c2=O)cc1 | 40.5% | 90.1% | 22.3% |
| O=C(Nc1ccc(Br)cc1)Nc1cccnc1 |  |  | 56.6% |

More lines, main results first:

| inhibition [2] | SMILES | Activity (HepG2) | Activity [1] |
| --- | --- | --- | --- |
| 53.3% | COc1ccc(Nc2c(N[C@H]3CC[C@H](Oc4ccc(S(C)(=O)=O)cc4)CC3)c(=O)c2=O)cc1 | 93.9% | 34.2% |
| 18% | COc1cccc(Nc2c(N[C@H]3CC[C@H](Oc4ccc([N+](=O)[O-])cc4)CC3)c(=O)c2=O)c1 | 87.2% | 64.3% |
| 23.9% | O=c1c(Nc2ccc(F)cc2)c(N[C@H]2CC[C@H](Oc3ccc([N+](=O)[O-])cc3)CC2)c1=O | 76.7% | 52.9% |
| 41.7% | COC(=O)c1ccc(Nc2c(N[C@H]3CC[C@H](Oc4ccc([N+](=O)[O-])cc4)CC3)c(=O)c2=O)cc1 | 91% | 26.7% |
| 41.5% | COc1cccc(Nc2c(N[C@H]3CC[C@H](Oc4ccc(C(F)(F)F)cc4)CC3)c(=O)c2=O)c1 | 97.4% | 69.9% |
| 51.1% | COc1cccc(Nc2c(N[C@H]3CC[C@H](Oc4ccc(S(C)(=O)=O)cc4)CC3)c(=O)c2=O)c1 | 100.4% | 62.5% |
| 57.6% | COc1ccc(Nc2c(N[C@H]3CC[C@H](Oc4ccc([N+](=O)[O-])cc4)CC3)c(=O)c2=O)cc1 | 88.4% | 34.3% |
| 59.6% | O=c1c(Nc2ccccc2)c(N[C@H]2CC[C@H](Oc3ccc([N+](=O)[O-])cc3)CC2)c1=O | 102.8% | 82.7% |
| 35.7% | COc1ccc(Nc2c(N[C@H]3CC[C@H](Oc4ccc(C#N)cc4)CC3)c(=O)c2=O)cc1 | 88.3% | 70.6% |
| 51.1% | COc1cccc(Nc2c(N[C@H]3CC[C@H](Oc4ccc(C#N)cc4)CC3)c(=O)c2=O)c1 | 91.4% | 60.6% |
| 35.6% | COc1ccc(Nc2c(N[C@H]3CC[C@H](Oc4ccc(C(F)(F)F)cc4)CC3)c(=O)c2=O)cc1 | 94.8% | 28.7% |
| 22.2% | COc1ccccc1Nc1c(N[C@H]2CC[C@H](Oc3ccc(S(C)(=O)=O)cc3)CC2)c(=O)c1=O | 962% | 34.4% |
| 42.8% | CC(C)(C)c1ccc(Nc2c(N[C@H]3CC[C@H](Oc4ccc([N+](=O)[O-])cc4)CC3)c(=O)c2=O)cc1 |  | 50.4% |
| 24.3% | O=c1c(Nc2ccc(Cl)cc2)c(N[C@H]2CC[C@H](Oc3ccc([N+](=O)[O-])cc3)CC2)c1=O | 78.6% | 49.8% |
